In ChEMBL document CHEMBL5518165, “M335, a novel small-molecule STING agonist activates the immune response and exerts antitumor effects” (Eur J Med Chem, 2024):
The source made the active and inactive calls. The calls are words filed in the database; no cut-off is given here.

Key:
[1] = biological target: Stimulator of interferon genes protein (Homo sapiens) (UniProt Q86WV6); experiment: Agonist activity at STING in human THP-1 cells assessed as increase in LC3 protein level by Western blotting analysis; assay type: cell-based
Stimulator of interferon genes protein (Homo sapiens), sequence (Q86WV6 whole entry): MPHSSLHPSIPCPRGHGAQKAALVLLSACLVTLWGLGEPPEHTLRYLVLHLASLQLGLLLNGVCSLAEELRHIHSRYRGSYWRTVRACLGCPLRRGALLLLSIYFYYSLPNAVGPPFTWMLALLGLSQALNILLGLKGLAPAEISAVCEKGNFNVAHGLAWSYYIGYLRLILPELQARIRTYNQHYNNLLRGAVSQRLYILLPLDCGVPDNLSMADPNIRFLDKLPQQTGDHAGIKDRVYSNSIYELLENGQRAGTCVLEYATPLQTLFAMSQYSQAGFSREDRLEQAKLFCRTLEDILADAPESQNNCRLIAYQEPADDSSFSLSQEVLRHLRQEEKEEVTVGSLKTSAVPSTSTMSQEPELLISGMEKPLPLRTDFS

[2] = biological target: Stimulator of interferon genes protein (Homo sapiens) (UniProt Q86WV6); experiment: Agonist activity at STING in human THP-1 cells assessed as increase in TBK1 phosphorylation by Western blotting analysis; assay type: cell-based
[3] = biological target: Stimulator of interferon genes protein (Homo sapiens) (UniProt Q86WV6); experiment: Agonist activity at STING in human THP-1 cells assessed as increase in IRF3 phosphorylation by Western blotting analysis; assay type: cell-based
[4] = biological target: T1, Stimulator of interferon genes protein (Mus musculus) (UniProt Q3TBT3); experiment: Agonist activity at STING in MEF cells assessed as increase in STING oligomerization by Western blotting analysis; assay type: cell-based; settings: filed as agonist
T1 sequence (whole entry): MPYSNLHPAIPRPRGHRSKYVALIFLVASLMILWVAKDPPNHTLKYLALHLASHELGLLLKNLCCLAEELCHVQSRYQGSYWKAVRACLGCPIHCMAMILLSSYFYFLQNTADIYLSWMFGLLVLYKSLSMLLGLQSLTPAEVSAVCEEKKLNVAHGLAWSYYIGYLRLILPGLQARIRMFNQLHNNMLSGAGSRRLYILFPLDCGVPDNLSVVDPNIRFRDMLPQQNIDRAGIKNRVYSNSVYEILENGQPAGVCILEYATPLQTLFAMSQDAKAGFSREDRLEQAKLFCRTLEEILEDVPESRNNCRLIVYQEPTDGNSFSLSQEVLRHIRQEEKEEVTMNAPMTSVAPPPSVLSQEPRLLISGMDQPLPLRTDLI

[5] = biological target: T1, Stimulator of interferon genes protein (Mus musculus); experiment: Agonist activity at STING in MEF cells assessed as STING translocation by measuring aggregation of green fluorescence incubated for 1 hr by laser scanning confocal microscope analysis; assay type: cell-based; settings: filed as agonist
[6] = biological target: T1, Stimulator of interferon genes protein (Mus musculus); experiment: Agonist activity at STING in MEF cells assessed as STING translocation to golgi apparatus by measuring increase in red fluorescence incubated for 1 hr by laser scanning confocal microscope analysis; assay type: cell-based; settings: filed as agonist
[7] = biological target: T1, Stimulator of interferon genes protein (Mus musculus); experiment: Agonist activity at STING in MEF cells assessed as nuclear transposition of phosphorylated IRF3 incubated for 1 hr by laser scanning confocal microscope analysis; assay type: cell-based; settings: filed as agonist
Human alphaherpesvirus 1 = experiment: Antiviral activity against HSV-1-GFP infected in human STING-deficient WT HeLa cells assessed as reduction in viral infection by fluorescent microscopy analysis; assay type: functional, organism-based

Row | Compound | Activity [1] | Activity [2] | Activity [3] | Activity [4] | Activity [5] | Activity [6] | Activity [7] | Activity (Human alphaherpesvirus 1)
1 | CC(NC(=O)CC(c1ccccc1)c1ccccc1)c1ccccc1 (centres undefined) | inactive | inactive | inactive | – | – | – | – | –
2 | C[C@@H](NCCC(c1ccccc1)c1ccccc1)c1ccccc1 | inactive | inactive | inactive | – | – | – | – | –
3 | C[C@H](NCCC(c1ccccc1)c1ccccc1)c1ccccc1 | inactive | inactive | inactive | – | – | – | – | –
4 | Nc1nc2c(ncn2[C@@H]2O[C@@H]3COP(=O)(O)O[C@H]4[C@@H](O)[C@H](n5cnc6c(N)ncnc65)O[C@@H]4COP(=O)(O)O[C@@H]2[C@@H]3O)c(=O)[nH]1 | – | – | – | Active | Active | Active | Active | inactive
